Entries after “also recorded” stand apart in the source; their conditions may differ.
Key:
[1] = system: U87-MG cells; assay: U87-MG cell viability; type: cell-based, human; conditions: concentrations up to 10 μM, relative to DMSO, 10% FBS
[2] = system: U87-MG glioblastoma cells; assay: Invasive migration in U87-MG cells; type: cell-based, human; conditions: for Invasive migration in U87-MG cells: 100 nM to 10 μM, 48 hours
[3] = not given; remark: listed apart in the source
[4] = target: PLD2 (Homo sapiens, UniProt O14939); conditions: purified PLD proteins; data comparable to cell-based assay
Chain of PLD2 (O14939 whole entry, species assumed): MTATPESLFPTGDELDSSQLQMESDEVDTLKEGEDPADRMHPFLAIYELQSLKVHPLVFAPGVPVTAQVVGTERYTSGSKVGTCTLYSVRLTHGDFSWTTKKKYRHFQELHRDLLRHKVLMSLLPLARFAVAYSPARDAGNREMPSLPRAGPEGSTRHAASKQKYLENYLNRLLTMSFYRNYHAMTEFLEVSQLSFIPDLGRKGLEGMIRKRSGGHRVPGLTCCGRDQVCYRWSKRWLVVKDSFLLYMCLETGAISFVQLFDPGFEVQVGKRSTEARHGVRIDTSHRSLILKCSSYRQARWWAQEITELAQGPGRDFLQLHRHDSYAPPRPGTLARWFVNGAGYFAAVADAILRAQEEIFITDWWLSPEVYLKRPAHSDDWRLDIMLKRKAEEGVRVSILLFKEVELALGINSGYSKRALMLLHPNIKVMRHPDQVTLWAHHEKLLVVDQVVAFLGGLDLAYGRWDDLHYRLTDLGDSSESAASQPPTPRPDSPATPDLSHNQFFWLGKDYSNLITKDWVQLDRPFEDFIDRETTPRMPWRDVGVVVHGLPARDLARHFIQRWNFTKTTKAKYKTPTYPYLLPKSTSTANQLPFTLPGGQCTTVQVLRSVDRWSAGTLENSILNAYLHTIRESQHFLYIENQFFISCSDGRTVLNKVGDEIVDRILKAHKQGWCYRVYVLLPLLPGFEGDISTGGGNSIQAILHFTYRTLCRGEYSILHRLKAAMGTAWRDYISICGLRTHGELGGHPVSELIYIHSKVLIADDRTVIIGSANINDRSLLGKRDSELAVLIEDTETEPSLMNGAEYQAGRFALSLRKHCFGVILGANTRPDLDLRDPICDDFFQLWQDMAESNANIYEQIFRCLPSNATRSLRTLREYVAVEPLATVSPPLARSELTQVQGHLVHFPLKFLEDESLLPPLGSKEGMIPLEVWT

[5] = target: T1, PLD1 (Homo sapiens, UniProt Q13393)
T1 sequence (Q13393 1-1074): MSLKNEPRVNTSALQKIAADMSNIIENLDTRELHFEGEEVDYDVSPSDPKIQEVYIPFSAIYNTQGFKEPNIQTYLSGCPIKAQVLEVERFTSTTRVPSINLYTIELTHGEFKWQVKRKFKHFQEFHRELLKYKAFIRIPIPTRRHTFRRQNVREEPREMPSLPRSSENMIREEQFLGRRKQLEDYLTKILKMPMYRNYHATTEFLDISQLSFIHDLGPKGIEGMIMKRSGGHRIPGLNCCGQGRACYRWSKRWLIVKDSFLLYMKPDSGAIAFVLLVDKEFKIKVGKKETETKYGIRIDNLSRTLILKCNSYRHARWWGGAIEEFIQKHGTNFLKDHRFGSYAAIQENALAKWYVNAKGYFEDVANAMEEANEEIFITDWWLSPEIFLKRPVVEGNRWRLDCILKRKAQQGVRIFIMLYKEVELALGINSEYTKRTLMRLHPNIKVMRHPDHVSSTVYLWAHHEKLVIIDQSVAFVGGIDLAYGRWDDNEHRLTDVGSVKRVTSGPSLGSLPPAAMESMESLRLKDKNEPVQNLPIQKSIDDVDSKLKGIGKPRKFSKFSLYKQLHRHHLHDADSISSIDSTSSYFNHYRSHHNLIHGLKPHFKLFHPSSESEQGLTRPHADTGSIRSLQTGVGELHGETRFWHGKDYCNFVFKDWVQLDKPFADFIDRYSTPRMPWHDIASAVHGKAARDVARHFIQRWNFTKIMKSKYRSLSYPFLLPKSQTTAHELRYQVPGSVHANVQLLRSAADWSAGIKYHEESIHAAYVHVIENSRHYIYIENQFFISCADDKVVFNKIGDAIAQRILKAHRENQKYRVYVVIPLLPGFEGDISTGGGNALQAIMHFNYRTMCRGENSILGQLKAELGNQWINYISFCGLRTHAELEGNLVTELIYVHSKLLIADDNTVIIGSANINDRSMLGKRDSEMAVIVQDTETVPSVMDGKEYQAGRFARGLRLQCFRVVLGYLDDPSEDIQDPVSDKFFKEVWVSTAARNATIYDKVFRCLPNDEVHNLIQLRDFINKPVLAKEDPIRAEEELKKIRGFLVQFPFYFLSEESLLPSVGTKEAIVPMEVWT

[6] = in vivo; conditions: mouse, ip, 10 mg/kg

Row | Compound | Effect on U87-MG cell viability [1] | Invasive migration in U87-MG cells [2] | Rat CLHEP [mL/min/kg] | Human CLHEP [3] [mL/min/kg] | Direct action on PLD2 in biochemical assay [4] | Concentration up to which PLD1 is not inhibited [5] [µM] | PLD1 inhibition [5] | Dose at which decrease in invasive migration reached statistical significance ([2]; U87-MG cells) [µM] | AUC at 6 h [6] [µM·h]
1 | Cc1cccc(N2CNC(=O)C23CCN(C[C@H](C)NC(=O)c2ccc(Br)cc2)CC3)c1 [ML299] | no effect | dose-dependent decrease; also recorded: decreased invasive migration |  |  |  |  |  |  | 
2 | O=C(NCCN1CCC2(CC1)C(=O)NCN2c1cccc(F)c1)c1ccc(F)c(F)c1 [ML298, 3,4-Difluoro-N-(2-(1-(3-fluorophenyl)-4-oxo-1,3,8-triazaspiro[4.5]decan-8yl)ethyl)benzamide] | no effect | dose-dependent decrease; also recorded: decreased invasive migration | 60.9 | 17.8 | acted directly on PLD2 | > 20 | no inhibition of PLD1 | 10 | 1.55
